In US20070104774A1, “Method for preparing phytosphingosine liposome composition” (priority 2003, published 2007):

Key:
[1] = cited from earlier work
[2] = Stability test of water lotion formulation of phytosphingosine liposome: size and sedimentation on storage at R.T. and low temperature; type: physicochemical; details: dissolved using an acid only such as lactic acid; as time went by and at low temperatures
Procedure: For a liposome solution containing 4 wt. % of phytosphingosine prepared according to Examples 3 and 7 and a solution in which the liposome solution was diluted so as to make a final concentration of phytosphingosine be 0.5% in a water lotion product, it was examined a stability of phytosphingosine liposome in water lotion formulation, based on sizes and sedimentation states as time went by and sizes and sedimentation states when storing at R.T. and a low temperature, respectively. Water lotion formulations used in the above test are as follows. The unit is wt. %. In water lotion formulations of liposome containing phytosphingosine, results of size variations as time went by are as follows. The unit is nm.

Structure (SMILES): CCCCCCCCCCCCCC[C@@H](O)[C@@H](O)[C@@H](N)CO [phytosphingosine]
- solubility in isocetyl alcohol ([1]; isocetyl alcohol solvent): 1 wt. %
- solubility in water ([1]; water): never dissolved in water
- behaviour on storage [2]: recrystallized
